Test results from the Kinase Knowledgebase extract (Sharma et al. 2016).
Where “and” joins values, the source holds several entries; their conditions need not be identical. Identical values can stand only once.

Columns and labels:
EGFR (human) [1] = molecular target: EGFR (human) (UniProt P00533); conditions: a431
EGFR (human) [2] = molecular target: EGFR (human) (UniProt P00533)

Chain of EGFR (human) (P00533 whole entry, looked up): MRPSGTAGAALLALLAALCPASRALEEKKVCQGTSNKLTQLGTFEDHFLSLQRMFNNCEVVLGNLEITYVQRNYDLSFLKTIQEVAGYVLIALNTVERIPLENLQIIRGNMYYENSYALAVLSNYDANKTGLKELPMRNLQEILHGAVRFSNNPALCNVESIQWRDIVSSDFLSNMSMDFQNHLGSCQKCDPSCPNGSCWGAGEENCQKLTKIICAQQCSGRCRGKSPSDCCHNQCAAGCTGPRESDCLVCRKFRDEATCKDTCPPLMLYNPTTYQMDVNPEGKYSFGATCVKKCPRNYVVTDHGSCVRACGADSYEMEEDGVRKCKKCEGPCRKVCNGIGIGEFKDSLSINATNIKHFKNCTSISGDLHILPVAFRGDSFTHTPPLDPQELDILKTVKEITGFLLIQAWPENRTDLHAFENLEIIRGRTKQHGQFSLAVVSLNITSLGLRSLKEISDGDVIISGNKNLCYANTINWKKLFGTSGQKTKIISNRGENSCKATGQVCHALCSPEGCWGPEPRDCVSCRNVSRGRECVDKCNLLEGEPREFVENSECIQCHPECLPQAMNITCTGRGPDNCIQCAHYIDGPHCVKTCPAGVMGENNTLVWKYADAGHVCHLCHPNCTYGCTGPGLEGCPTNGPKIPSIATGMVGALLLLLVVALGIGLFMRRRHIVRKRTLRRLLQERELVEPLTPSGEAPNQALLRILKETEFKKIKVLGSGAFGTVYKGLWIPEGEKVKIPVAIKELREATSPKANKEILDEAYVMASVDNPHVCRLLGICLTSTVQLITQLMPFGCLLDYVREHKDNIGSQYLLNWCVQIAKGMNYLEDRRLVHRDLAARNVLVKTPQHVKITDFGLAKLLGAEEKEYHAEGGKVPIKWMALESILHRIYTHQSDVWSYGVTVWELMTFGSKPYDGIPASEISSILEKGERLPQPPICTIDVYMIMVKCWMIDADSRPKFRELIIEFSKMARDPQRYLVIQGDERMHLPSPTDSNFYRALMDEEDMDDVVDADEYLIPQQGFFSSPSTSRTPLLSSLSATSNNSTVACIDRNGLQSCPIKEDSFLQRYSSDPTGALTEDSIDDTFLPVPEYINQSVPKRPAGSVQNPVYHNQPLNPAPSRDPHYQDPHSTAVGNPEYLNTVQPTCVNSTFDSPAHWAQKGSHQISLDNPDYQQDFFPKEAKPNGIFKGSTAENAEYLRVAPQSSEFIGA

SMILES	IC50 (EGFR (human) [1])	IC50 (EGFR (human) [2])
O=C(Cn1ccc(-c2ccc3ncnc(Nc4ccc(OCc5cccc(F)c5)c(Cl)c4)c3c2)c1)N1CCOCC1	770 nM	22 nM
COCCNCc1cn(-c2ccc3ncnc(Nc4ccc(OCc5cccc(F)c5)c(Cl)c4)c3c2)cc1C(F)(F)F	480 nM	49 nM
CC(=O)NC1CCN(C(=O)Cn2ccc(-c3ccc4ncnc(Nc5ccc(OCc6cccc(F)c6)c(Cl)c5)c4c3)c2)CC1	952 nM	102 nM
Clc1cc(Nc2ncnc3ccc(-n4cccc4)cc23)ccc1OCc1ccccn1	10 nM	6 nM
Fc1cccc(Cn2ncc3cc(Nc4ncnc5ccc(-c6ccn(CC7CN(CCN8CCOCC8)CCO7)c6)cc45)ccc32)c1 (centres undefined)	1300 nM	276 nM
CCN(CC)CC(O)Cn1ccc(-c2ccc3ncnc(Nc4ccc5c(cnn5Cc5cccc(F)c5)c4)c3c2)c1 (centres undefined)	120 nM	20 nM
CS(=O)(=O)CCNCc1cc(-c2ccc3ncnc(Nc4ccc(OCc5cccc(F)c5)c(Cl)c4)c3c2)c[nH]1	250 nM	11 nM
Fc1cccc(COc2ccc(Nc3ncnc4ccc(-c5ccn(CCN6CCN(CC7CC7)CC6)c5)cc34)cc2Cl)c1	1530 nM	94 nM
OC1CCN(CC(O)Cn2ccc(-c3ccc4ncnc(Nc5ccc6c(cnn6Cc6cccc(F)c6)c5)c4c3)c2)CC1 (centres undefined)	1560 nM	24 nM
OC(CN1CCN(CC2CC2)CC1)Cn1ccc(-c2ccc3ncnc(Nc4ccc(OCc5cccc(F)c5)c(Cl)c4)c3c2)c1 (centres undefined)	409 nM	79 nM
CCN(CC)CCNCc1ccn(-c2ccc3ncnc(Nc4ccc(OCc5cccc(F)c5)c(Cl)c4)c3c2)c1	200 nM	8 nM
Fc1cccc(COc2ccc(Nc3ncnc4ccc(-n5cc(CNCCCN6CCOCC6)c(C(F)(F)F)c5)cc34)cc2Cl)c1	310 nM	43 nM
OC(CN1CCN(Cc2ccncc2)CC1)Cn1ccc(-c2ccc3ncnc(Nc4ccc5c(cnn5Cc5cccc(F)c5)c4)c3c2)c1 (centres undefined)	4200 nM	598 nM
Fc1cccc(COc2ccc(Nc3ncnc4ccc(-c5ccn(CCCN6CCOCC6)c5)cc34)cc2Cl)c1	1370 nM	39 nM
OCCc1cn(-c2ccc3ncnc(Nc4ccc(OCc5cccc(F)c5)c(Cl)c4)c3c2)cc1CN1CCCC1	390 nM	7 nM
O=S1(=O)CCC(CNCc2cc(-c3ccc4ncnc(Nc5ccc6c(cnn6Cc6cccc(F)c6)c5)c4c3)c[nH]2)CC1	1100 nM	7 nM
Fc1cccc(Cn2ncc3cc(Nc4ncnc5ccc(-n6cccc6)cc45)ccc32)c1	80 nM	6 nM
COCCNC(=O)c1cn(-c2ccc3ncnc(Nc4ccc(OCc5ccccn5)c(Cl)c4)c3c2)cc1CCO	200 nM	78 nM
O=C(NCCN1CCOCC1)c1cn(-c2ccc3ncnc(Nc4ccc(OCc5cccc(F)c5)c(Cl)c4)c3c2)cc1CCO	2360 nM	20 nM
CC(=O)N[C@@H]1CCN(C(=O)Cn2ccc(-c3ccc4ncnc(Nc5ccc(OCc6cccc(F)c6)c(Cl)c5)c4c3)c2)C1	626 nM	129 nM
CN1CCN(CCn2ccc(-c3ccc4ncnc(Nc5ccc(OCc6cccc(F)c6)c(Cl)c5)c4c3)c2)CC1	1780 nM	17 nM
O=C1OCCc2cn(-c3ccc4ncnc(Nc5ccc(OCc6ccccn6)c(Cl)c5)c4c3)cc21	810 nM	8 nM
Fc1cccc(COc2ccc(Nc3ncnc4ccc(-c5ccn(CCN6CCCC6)c5)cc34)cc2Cl)c1	40 nM	4 nM

SMILES	IC50 (EGFR (human) [1])	IC50 (EGFR (human) [2])
Fc1ccc(Nc2ncnc3ccc(-c4ccc[nH]4)cc23)cc1Cl	21 nM	11 nM
COCCCN1CCOC(Cn2ccc(-c3ccc4ncnc(Nc5ccc6c(cnn6Cc6cccc(F)c6)c5)c4c3)c2)C1 (centres undefined)	832 nM	291 nM
CS(=O)(=O)CCOCC(O)Cn1ccc(-c2ccc3ncnc(Nc4ccc(OCc5cccc(F)c5)c(Cl)c4)c3c2)c1 (centres undefined)	615 nM	38 nM
Fc1cccc(COc2ccc(Nc3ncnc4ccc(-c5ccn(CCNC6CC6)c5)cc34)cc2Cl)c1	747 nM	239 nM
CS(=O)(=O)CCNCc1ccc(-c2ccc3ncnc(Nc4ccc(OCc5ccccn5)c(Cl)c4)c3c2)[nH]1	570 nM	13 nM
CN1CCN(CC(O)Cn2ccc(-c3ccc4ncnc(Nc5ccc6c(cnn6Cc6cccc(F)c6)c5)c4c3)c2)CC1 (centres undefined)	768 nM	2 nM
O=C(Cn1ccc(-c2ccc3ncnc(Nc4ccc(OCc5cccc(F)c5)c(Cl)c4)c3c2)c1)N[C@H]1CC[C@H](O)CC1	327 nM	263 nM
Fc1cccc(Cn2ncc3cc(Nc4ncnc5ccc(-c6ccn(CCN7CCOCC7)c6)cc45)ccc32)c1	100 nM	6 nM
OC(CN1CCC(N2CCCC2)CC1)Cn1ccc(-c2ccc3ncnc(Nc4ccc(OCc5cccc(F)c5)c(Cl)c4)c3c2)c1 (centres undefined)	362 nM	39 nM
O=C(Cn1ccc(-c2ccc3ncnc(Nc4ccc(OCc5cccc(F)c5)c(Cl)c4)c3c2)c1)NCC1(O)CCS(=O)(=O)CC1	1550 nM	17 nM
O=C(NCC1CCS(=O)(=O)CC1)c1cc(-c2ccc3ncnc(Nc4ccc(OCc5cccc(F)c5)c(Cl)c4)c3c2)c[nH]1	706 nM	116 nM
CCN(CC)CCNC(=O)c1cn(-c2ccc3ncnc(Nc4ccc(OCc5ccccn5)c(Cl)c4)c3c2)cc1CCO	8 nM	25 nM
OC(CN1CC=CC1)Cn1ccc(-c2ccc3ncnc(Nc4ccc(OCc5cccc(F)c5)c(Cl)c4)c3c2)c1 (centres undefined)	431 nM	22 nM
OCCc1cn(-c2ccc3ncnc(Nc4ccc(OCc5cccc(F)c5)c(Cl)c4)c3c2)cc1CN1CCOCC1	210 nM	4 nM
OC(CN1CCCCC1)Cn1ccc(-c2ccc3ncnc(Nc4ccc(OCc5cccc(F)c5)c(Cl)c4)c3c2)c1 (centres undefined)	450 nM	21 nM
Cc1ccc(Oc2ccc(Nc3ncnc4ccc(-c5cc[nH]c5)cc34)cc2C)cn1	90 nM	387 nM
CCN(CC)CCn1ccc(-c2ccc3ncnc(Nc4ccc5c(cnn5Cc5cccc(F)c5)c4)c3c2)c1	1030 nM	6 nM
Fc1cccc(COc2ccc(Nc3ncnc4ccc(-n5cc(CNCCN6CCCC6)c(C(F)(F)F)c5)cc34)cc2Cl)c1	1040 nM	55 nM
CS(=O)(=O)CCNCc1cccn1-c1ccc2ncnc(Nc3ccc(OCc4cccc(F)c4)c(Cl)c3)c2c1	270 nM	12 nM
CCN(CC)C[C@H](O)Cn1ccc(-c2ccc3ncnc(Nc4ccc5c(cnn5Cc5cccc(F)c5)c4)c3c2)c1	220 nM	38 nM
O=C(Cn1ccc(-c2ccc3ncnc(Nc4ccc(OCc5cccc(F)c5)c(Cl)c4)c3c2)c1)N1CCNCC1	661 nM	41 nM
OCCc1cn(-c2ccc3ncnc(Nc4ccc(OCc5ccccn5)c(Cl)c4)c3c2)cc1CN1CCCCC1	3 nM	32 nM
OCC(O)Cn1ccc(-c2ccc3ncnc(Nc4ccc(OCc5cccc(F)c5)c(Cl)c4)c3c2)c1 (centres undefined)	1390 nM	27 nM

SMILES	IC50 (EGFR (human) [1])	IC50 (EGFR (human) [2])
CCN(CC)C[C@@H](O)Cn1ccc(-c2ccc3ncnc(Nc4ccc5c(cnn5Cc5cccc(F)c5)c4)c3c2)c1	390 nM	71 nM
O=C(c1cn(-c2ccc3ncnc(Nc4ccc(OCc5cccc(F)c5)c(Cl)c4)c3c2)cc1CCO)N1CCOCC1	160 nM	8 nM
Fc1cccc(COc2ccc(Nc3ncnc4ccc(-n5ccc(CNCCN6CCOCC6)c5)cc34)cc2Cl)c1	20 nM	3 nM
OC(CN1CCOCC1)Cn1ccc(-c2ccc3ncnc(Nc4ccc5c(cnn5Cc5cccc(F)c5)c4)c3c2)c1 (centres undefined)	170 nM	5 nM
CNCCn1ccc(-c2ccc3ncnc(Nc4ccc(OCc5cccc(F)c5)c(Cl)c4)c3c2)c1	3420 nM	73 nM
CS(=O)(=O)CCNCC(O)Cn1ccc(-c2ccc3ncnc(Nc4ccc5c(cnn5Cc5cccc(F)c5)c4)c3c2)c1 (centres undefined)	430 nM	1 nM
O=C(Cn1ccc(-c2ccc3ncnc(Nc4ccc(OCc5cccc(F)c5)c(Cl)c4)c3c2)c1)NC1CCS(=O)(=O)CC1	3710 nM	140 nM
CN1CCN(CCNC(=O)c2cn(-c3ccc4ncnc(Nc5ccc(OCc6ccccn6)c(Cl)c5)c4c3)cc2CCO)CC1	120 nM	108 nM
CN1CCN(Cc2cn(-c3ccc4ncnc(Nc5ccc(OCc6ccccn6)c(Cl)c5)c4c3)cc2CCO)CC1	210 nM	26 nM
CCN(CC)Cc1ccn(-c2ccc3ncnc(Nc4ccc(OCc5cccc(F)c5)c(Cl)c4)c3c2)c1	200 nM	9 nM
CS(=O)(=O)CCNCc1ccn(-c2ccc3ncnc(Nc4ccc(OCc5cccc(F)c5)c(Cl)c4)c3c2)c1	780 nM	50 nM
CN1CCN(CCNCc2cn(-c3ccc4ncnc(Nc5ccc(OCc6cccc(F)c6)c(Cl)c5)c4c3)cc2C(F)(F)F)CC1	160 nM	32 nM
CS(=O)(=O)N1CCOC(Cn2ccc(-c3ccc4ncnc(Nc5ccc6c(cnn6Cc6cccc(F)c6)c5)c4c3)c2)C1 (centres undefined)	243 nM	257 nM
Fc1cccc(COc2ccc(Nc3ncnc4ccc(-c5ccn(CCCN6CCN(c7cccc(Cl)c7)CC6)c5)cc34)cc2Cl)c1	290 nM	32 nM
Fc1cccc(COc2ccc(Nc3ncnc4ccc(-c5ccn(C[C@H]6CN7CCC[C@@H]7CO6)c5)cc34)cc2Cl)c1	1320 nM	74 nM
CCN(CC)CCNCc1ccc(-c2ccc3ncnc(Nc4ccc(OCc5cccc(F)c5)c(Cl)c4)c3c2)[nH]1	1450 nM	18 nM
O=S1(=O)CCC(O)(CNCc2cc(-c3ccc4ncnc(Nc5ccc6c(cnn6Cc6cccc(F)c6)c5)c4c3)c[nH]2)CC1	2870 nM	6 nM
O=C(c1cn(-c2ccc3ncnc(Nc4ccc(OCc5ccccn5)c(Cl)c4)c3c2)cc1CCO)N1CCOCC1	50 nM	49 nM
OCCN1CCOC(Cn2ccc(-c3ccc4ncnc(Nc5ccc6c(cnn6Cc6cccc(F)c6)c5)c4c3)c2)C1 (centres undefined)	477 nM	205 nM
Cn1cccc1-c1ccc2ncnc(Nc3ccc(OCc4cccc(F)c4)c(Cl)c3)c2c1	136 nM	6 nM
Fc1cccc(COc2ccc(Nc3ncnc4ccc(-n5cc6c(c5)C(=NOCCN5CCOCC5)CC6)cc34)cc2Cl)c1	20 nM	86 nM and 94 nM
